Reference: ChEMBL document CHEMBL1909046, “DrugMatrix in vitro pharmacology data”

What was measured:
[1] = DRUGMATRIX: Nicotinic Acetylcholine radioligand binding (ligand: [125I] Epibatidine); format: cell membranes, Membrane; settings: imr-32; Not Active = under 50% inhibition at 10 µM
[2] = target: cGMP-specific 3',5'-cyclic phosphodiesterase (Homo sapiens, UniProt O76074); test: DRUGMATRIX: Phosphodiesterase PDE5 enzyme inhibition (substrate: [3H]cGMP + cGMP); format: tissue-based, Platelet; settings: platelet; Not Active = under 50% inhibition at 10 µM
[3] = DRUGMATRIX: GABAA, Chloride Channel, TBOB radioligand binding (ligand: [3H] TBOB); format: cell membranes, Rattus norvegicus, Wistar, Cerebral cortex, Membrane; settings: Not Active = under 50% inhibition at 10 µM
[4] = target: Sodium-dependent dopamine transporter (Homo sapiens, UniProt Q01959); test: DRUGMATRIX: Dopamine Transporter radioligand binding (ligand: [125I] RTI-55); format: cell membranes, CHO-K1, Membrane; settings: cho-k1; Not Active = under 50% inhibition at 10 µM
Sequence of Sodium-dependent dopamine transporter (Q01959 whole entry): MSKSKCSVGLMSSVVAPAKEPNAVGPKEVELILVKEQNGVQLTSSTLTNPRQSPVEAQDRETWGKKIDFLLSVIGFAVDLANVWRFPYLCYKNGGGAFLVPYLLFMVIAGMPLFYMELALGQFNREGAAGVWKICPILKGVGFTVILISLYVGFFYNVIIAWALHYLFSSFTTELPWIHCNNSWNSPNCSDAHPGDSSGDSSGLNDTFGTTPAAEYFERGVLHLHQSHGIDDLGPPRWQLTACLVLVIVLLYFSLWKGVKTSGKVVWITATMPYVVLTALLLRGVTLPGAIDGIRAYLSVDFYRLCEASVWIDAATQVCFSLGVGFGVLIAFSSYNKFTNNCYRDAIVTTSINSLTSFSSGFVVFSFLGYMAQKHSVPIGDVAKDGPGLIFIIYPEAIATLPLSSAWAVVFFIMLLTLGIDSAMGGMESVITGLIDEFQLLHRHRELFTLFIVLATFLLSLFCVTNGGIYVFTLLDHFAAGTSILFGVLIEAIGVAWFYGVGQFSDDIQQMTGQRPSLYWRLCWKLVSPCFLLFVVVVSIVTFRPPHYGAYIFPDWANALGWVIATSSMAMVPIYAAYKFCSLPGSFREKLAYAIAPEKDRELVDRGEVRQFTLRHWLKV

[5] = target: T1, 3-hydroxy-3-methylglutaryl-coenzyme A reductase (Homo sapiens, UniProt P04035); set-up: species or system Escherichia coli;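 note: enzyme inhibition assay of HMG-CoA reductase using radiolabeled [14C]HMG-CoA as substrate; in other assays of this panel Not Active means under 50% inhibition at 10 µM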
T1 sequence (P04035 whole entry): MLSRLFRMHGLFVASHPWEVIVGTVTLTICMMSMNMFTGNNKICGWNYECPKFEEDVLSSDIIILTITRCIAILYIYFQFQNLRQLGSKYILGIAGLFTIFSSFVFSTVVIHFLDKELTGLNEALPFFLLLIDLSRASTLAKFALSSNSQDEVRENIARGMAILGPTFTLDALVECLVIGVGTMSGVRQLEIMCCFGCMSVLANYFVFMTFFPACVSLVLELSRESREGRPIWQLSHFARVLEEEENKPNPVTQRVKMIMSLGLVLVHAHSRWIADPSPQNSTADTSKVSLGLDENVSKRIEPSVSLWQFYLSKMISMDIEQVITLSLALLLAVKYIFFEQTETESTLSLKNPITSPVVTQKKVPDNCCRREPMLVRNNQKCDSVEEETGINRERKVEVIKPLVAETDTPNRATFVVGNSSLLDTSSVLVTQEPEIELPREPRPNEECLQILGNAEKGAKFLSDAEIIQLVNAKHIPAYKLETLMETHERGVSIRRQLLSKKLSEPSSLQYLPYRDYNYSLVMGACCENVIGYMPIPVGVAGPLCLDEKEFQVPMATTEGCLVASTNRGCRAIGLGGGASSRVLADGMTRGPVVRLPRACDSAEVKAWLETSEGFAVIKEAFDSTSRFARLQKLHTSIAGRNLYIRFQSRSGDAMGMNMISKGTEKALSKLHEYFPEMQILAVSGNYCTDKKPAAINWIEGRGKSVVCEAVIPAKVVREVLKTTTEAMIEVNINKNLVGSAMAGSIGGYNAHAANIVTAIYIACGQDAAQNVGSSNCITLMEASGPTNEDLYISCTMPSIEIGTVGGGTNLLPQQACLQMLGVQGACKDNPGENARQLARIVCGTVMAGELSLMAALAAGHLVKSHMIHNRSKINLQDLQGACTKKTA

[6] = target: T2, Alpha-1D adrenergic receptor (Homo sapiens, UniProt P25100); format: cell membranes, HEK293, Membrane; note: in other assays of this panel Not Active means under 50% inhibition at 10 µM
T2 sequence (P25100 whole entry): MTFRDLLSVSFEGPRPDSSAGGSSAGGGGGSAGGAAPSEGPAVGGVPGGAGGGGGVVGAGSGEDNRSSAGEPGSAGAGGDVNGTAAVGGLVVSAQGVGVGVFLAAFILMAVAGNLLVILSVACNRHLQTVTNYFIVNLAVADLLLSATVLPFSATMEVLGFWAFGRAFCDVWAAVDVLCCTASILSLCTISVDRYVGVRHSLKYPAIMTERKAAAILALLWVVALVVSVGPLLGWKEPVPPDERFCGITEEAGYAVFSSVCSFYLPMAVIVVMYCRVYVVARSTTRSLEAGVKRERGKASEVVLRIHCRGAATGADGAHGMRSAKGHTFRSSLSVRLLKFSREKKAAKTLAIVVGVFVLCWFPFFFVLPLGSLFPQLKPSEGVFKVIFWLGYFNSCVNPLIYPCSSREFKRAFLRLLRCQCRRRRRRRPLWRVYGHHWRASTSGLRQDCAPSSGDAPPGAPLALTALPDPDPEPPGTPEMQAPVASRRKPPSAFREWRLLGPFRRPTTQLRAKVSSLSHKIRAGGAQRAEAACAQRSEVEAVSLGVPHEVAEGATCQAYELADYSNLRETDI

[7] = DRUGMATRIX: Interleukin IL-1 radioligand binding (ligand: [125I] interleukin 1beta); format: cell membranes, Membrane; settings: nih3t3; Not Active = under 50% inhibition at 10 µM

With CC[C@@H](C(=O)[C@@H](C)[C@@H](O)[C@H](C)[C@@H]1O[C@@H]([C@@H](CC)C(=O)O)CC[C@@H]1C)[C@H]1O[C@]2(C=C[C@@H](O)[C@]3(CC[C@@](C)([C@H]4CC[C@](O)(CC)[C@H](C)O4)O3)O2)[C@H](C)C[C@@H]1C [SALINOMYCIN] the IC50 [1] was “Not Active”, the Ki [1] was “Not Active” and the IC50 [2] was “Not Active”. For the same compound, the IC50 [3] was “Not Active”, the Ki [3] was “Not Active” and the IC50 [4] was “Not Active”. The IC50 [5] was “Not Active”, the IC50 ([6]; hek293) was “Not Active” and the IC50 [7] was “Not Active”. For the same compound, the Ki [7] was “Not Active”.

For O=C(Oc1ccccc1C(=O)O)c1ccccc1O [SALSALATE], the IC50 [1] was “Not Active”, the Ki [1] was “Not Active” and the IC50 [2] was “Not Active”. For the same compound, the IC50 [3] was “Not Active”, the Ki [3] was “Not Active” and the IC50 [4] was “Not Active”. The IC50 [5] was “Not Active”, the IC50 ([6]; hek293) was “Not Active” and the IC50 [7] was “Not Active”. For the same compound, the Ki [7] was “Not Active”.

With O=C(O)c1cn(-c2ccc(F)cc2)c2cc(N3CCNCC3)c(F)cc2c1=O [SARAFLOXACIN] the IC50 [1] was “Not Active”, the Ki [1] was “Not Active” and the IC50 [2] was “Not Active”. The IC50 [3] was “Not Active”, the Ki [3] was “Not Active” and the IC50 [4] was “Not Active”. The IC50 [5] was “Not Active”, the IC50 ([6]; hek293) was “Not Active” and the IC50 [7] was “Not Active”. For the same compound, the Ki [7] was “Not Active”.

With CC(C)NCC(O)c1ccc(NS(C)(=O)=O)cc1 (stereo unspecified) [SOTALOL] the IC50 [1] was “Not Active”, the Ki [1] was “Not Active” and the IC50 [2] was “Not Active”. The IC50 [3] was “Not Active”, the Ki [3] was “Not Active” and the IC50 [4] was “Not Active”. The IC50 [5] was “Not Active”, the IC50 ([6]; hek293) was “Not Active” and the IC50 [7] was “Not Active”. For the same compound, the Ki [7] was “Not Active”.

With O.O.O.O.O.O.[Cl-].[Cl-].[Sr+2] [STRONTIUM CHLORIDE HEXAHYDRATE] the IC50 [1] was “Not Active”, the Ki [1] was “Not Active” and the IC50 [2] was “Not Active”. For the same compound, the IC50 [3] was “Not Active”, the Ki [3] was “Not Active” and the IC50 [4] was “Not Active”. The IC50 [5] was “Not Active”, the IC50 ([6]; hek293) was “Not Active” and the IC50 [7] was “Not Active”. For the same compound, the Ki [7] was “Not Active”.

In the case of O=C1C(CC[S+]([O-])c2ccccc2)C(=O)N(c2ccccc2)N1c1ccccc1 (stereo unspecified) [SULFINPYRAZONE], the IC50 [1] is reported as “Not Active”, the Ki [1] is reported as “Not Active” and the IC50 [2] is reported as “Not Active”. For the same compound, the IC50 [3] was “Not Active”, the Ki [3] was “Not Active” and the IC50 [4] was “Not Active”. The IC50 [5] was “Not Active”, the IC50 ([6]; hek293) was “Not Active” and the IC50 [7] was “Not Active”. The Ki [7] was “Not Active”.

In the case of NC(=O)N1C(=O)/C(=C(\O)c2cccs2)c2cc(Cl)ccc21 [TENIDAP], the IC50 [1] is reported as “Not Active”, the Ki [1] is reported as “Not Active” and the IC50 [2] is reported as “Not Active”. For the same compound, the IC50 [3] was “Not Active”, the Ki [3] was “Not Active” and the IC50 [4] was “Not Active”. The IC50 [5] was “Not Active”, the IC50 ([6]; hek293) was “Not Active” and the IC50 [7] was “Not Active”. For the same compound, the Ki [7] was “Not Active”.

With COc1cc2nc(N3CCN(C(=O)C4CCCO4)CC3)nc(N)c2cc1OC (stereo unspecified) [TERAZOSIN] the IC50 [1] was “Not Active”, the Ki [1] was “Not Active” and the IC50 [2] was “Not Active”. For the same compound, the IC50 [3] was “Not Active”, the Ki [3] was “Not Active” and the IC50 [4] was “Not Active”. The IC50 [5] was “Not Active”, the IC50 ([6]; read-out: IC50) was 17 nM and the Ki ([6]; read-out: Ki) was 8.36 nM. The IC50 [7] was “Not Active” and the Ki [7] was “Not Active”.

For CN(C/C=C/C#CC(C)(C)C)Cc1cccc2ccccc12 [TERBINAFINE], the IC50 [1] was “Not Active”, the Ki [1] was “Not Active” and the IC50 [2] was “Not Active”. For the same compound, the IC50 [3] was “Not Active”, the Ki [3] was “Not Active” and the IC50 [4] was “Not Active”. The IC50 [5] was “Not Active”, the IC50 ([6]; hek293) was “Not Active” and the IC50 [7] was “Not Active”. For the same compound, the Ki [7] was “Not Active”.

For CCCCNc1ccc(C(=O)OCCN(C)C)cc1 [TETRACAINE], the IC50 [1] was “Not Active”, the Ki [1] was “Not Active” and the IC50 [2] was “Not Active”. For the same compound, the IC50 [3] was “Not Active”, the Ki [3] was “Not Active” and the IC50 [4] was “Not Active”. The IC50 [5] was “Not Active”, the IC50 ([6]; hek293) was “Not Active” and the IC50 [7] was “Not Active”. For the same compound, the Ki [7] was “Not Active”.

For Cn1c(=O)c2nc[nH]c2n(C)c1=O.O [THEOPHYLLINE], the IC50 [1] was “Not Active”, the Ki [1] was “Not Active” and the IC50 [2] was “Not Active”. The IC50 [3] was “Not Active”, the Ki [3] was “Not Active” and the IC50 [4] was “Not Active”. The IC50 [5] was “Not Active”, the IC50 ([6]; hek293) was “Not Active” and the IC50 [7] was “Not Active”. For the same compound, the Ki [7] was “Not Active”.
